Experimental data from patent US5536822A, “γ-phosphate linked adenosine 5' triphosphate sepharose” (University of Virginia Alumni Patents Foundation, priority 1994, dated 1996).

How the values were obtained:
p42^mapk = target: T1, p42^mapk (Mus musculus, UniProt P63085); assay: Inhibition constant of the ATP derivative / Km for ATP, p42^mapk assay; type: biochemical; conditions: 20 μM ATP
T1 construct: made in house
Description: (§1) [γ-^32 P] ATP was synthesized according to the procedure set forth in Johnson et al., Advances in Cyclic Nucleotide Research, 10:135-167 (1979). The catalytic subunit of cyclic-AMP-dependent protein kinase was purchased from Promega. p60^c-arc was obtained from the Department of Microbiology, University of Virginia. Recombinant p42^mapk was purified as described in Haystead et al., (1992) FEBS Lett., 306:17-22. STE7 antibody was obtained from the University of Vancouver, Canada.
(§2) The 42-kDa MAP kinase (p42^mapk) and MAPKK were assayed as described previously (Haystead et al. (1992) FEBS. Lett., 306:17-22). The cyclic-A kinase assays (30 μl) included 1 μg cyclic-A kinase, 2 mM Kemptide, 50 mM Hepes, pH 7.4, 1 mM dithiothreitol, 200 μM ATP, 5 mM MgCl2. […]
(§3) In order to assess the effectiveness of adenosine 5'-(γ-4-aminophenyl)triphosphate as an affinity ligand for protein kinases, the inhibition constants (Ki) of the derivative were determined for four different protein kinases, namely, p42^mapk, cyclic-A kinase, MAPKK and p60^c-arc (Table 1). […] This also facilitated comparisons for the relative binding constants determined with other ATP analogs (Flockhart et al. (1984) Eur. J. Biochem., 140:289-295; Hoppe et al. (1972) Eur. J. Biochem., 80:369-372; Taylor et al. (1990) Peptides and Protein Phosphorylation (Kemp et al.) pp 2-32, CRC Press).

[1] = tested on: four different protein kinases, namely, p42^mapk, cyclic-A kinase, MAPKK and p60^c-arc; assay: Inhibition of four protein kinases by the ATP derivative (summary over all enzymes); type: biochemical
Method: The 42-kDa MAP kinase (p42^mapk) and MAPKK were assayed as described previously (Haystead et al. (1992) FEBS. Lett., 306:17-22). The cyclic-A kinase assays (30 μl) included 1 μg cyclic-A kinase, 2 mM Kemptide, 50 mM Hepes, pH 7.4, 1 mM dithiothreitol, 200 μM ATP, 5 mM MgCl2. Reactions were terminated by spotting 25 μl assay mixture onto P81 paper as described in Haystead et al. (1992) FEBS Lett., 306:17-22. p60^c-arc assays were similar, except a 2 mM peptide (Rossomando et al., 1992) Proc. Natl. Acad. Sci., 89:5221-5225) was used as the substrate.
In order to assess the effectiveness of adenosine 5'-(γ-4-aminophenyl)triphosphate as an affinity ligand for protein kinases, the inhibition constants (Ki) of the derivative were determined for four different protein kinases, namely, p42^mapk, cyclic-A kinase, MAPKK and p60^c-arc (Table 1). The Ki was determined in the presence of 20 μM ATP. However, since the Km for ATP varied for each protein kinase tested, for comparative purposes it was convenient to determine the Ki /Km quotient (Table 1). This also facilitated comparisons for the relative binding constants determined with other ATP analogs (Flockhart et al. (1984) Eur. J. Biochem., 140:289-295; Hoppe et al. (1972) Eur. J. Biochem., 80:369-372; Taylor et al. (1990) Peptides and Protein Phosphorylation (Kemp et al.) pp 2-32, CRC Press).

Cyclic A kinase = Cyclic A kinase (Bos taurus, UniProt P00517); assay: Inhibition constant of the ATP derivative / Km for ATP, cyclic-A kinase assay (Kemptide substrate)
p60^c-src = target: T2, p60^c-src (Homo sapiens, UniProt P12931); assay: Inhibition constant of the ATP derivative / Km for ATP, p60^c-src assay (peptide substrate); type: biochemical; conditions: 20 μM ATP
T2 construct: Department of Microbiology, University of Virginia (obtained from; not a purchase)
Description: as §1, §2, §3

MAPKK = target: T3, MAPKK (Oryctolagus cuniculus, UniProt P29678); assay: Inhibition constant of the ATP derivative / Km for ATP, MAPKK assay; type: biochemical, rabbit
T3 construct: MAPKK, from rabbit skeletal muscle, was partially purified 600-fold; from tissue; host or cells: skeletal muscle (back and hind-limb) of a female New Zealand white rabbit
Method: A fed female New Zealand white rabbit was euthanized by lethal injection with phenobarbital via the marginal ear vein. The back and hind-limb skeletal muscle (300 g) were rapidly excised, minced and homogenized at 4° C. with 2.5 vol. solution C (50 mM 2-glycerophosphate, pH 7.3, 1.5 mM EGTA, 0.15 μM sodium orthovanidate, 1 mM dithiothreitol, 1 mM phenylmethanesulfonyl fluoride, 1 mM benzamidine) containing 6 μg/ml leupeptin. All subsequent steps were carried out at 4° C. […] The DEAE was packed into a glass column (20 cm×50 cm) washed with solution C until the absorbance at […] of the eluate was <0.005 absorbance. […]
as §3

[2] = [Mg^2+] reduced to levels equimolar with free ATP

T3 sequence (P29678 whole entry): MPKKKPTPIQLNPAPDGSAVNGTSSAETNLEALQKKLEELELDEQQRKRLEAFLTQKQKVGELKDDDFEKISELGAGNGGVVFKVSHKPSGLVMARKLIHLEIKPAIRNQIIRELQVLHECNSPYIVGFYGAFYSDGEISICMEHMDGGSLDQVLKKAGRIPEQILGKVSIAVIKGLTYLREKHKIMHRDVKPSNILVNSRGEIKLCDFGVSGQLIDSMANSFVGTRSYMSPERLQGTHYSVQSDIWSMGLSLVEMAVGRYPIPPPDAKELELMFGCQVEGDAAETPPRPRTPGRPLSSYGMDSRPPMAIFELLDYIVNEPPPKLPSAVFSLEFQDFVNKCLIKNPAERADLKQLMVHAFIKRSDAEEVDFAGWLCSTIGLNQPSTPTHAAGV
T2 sequence (P12931 whole entry): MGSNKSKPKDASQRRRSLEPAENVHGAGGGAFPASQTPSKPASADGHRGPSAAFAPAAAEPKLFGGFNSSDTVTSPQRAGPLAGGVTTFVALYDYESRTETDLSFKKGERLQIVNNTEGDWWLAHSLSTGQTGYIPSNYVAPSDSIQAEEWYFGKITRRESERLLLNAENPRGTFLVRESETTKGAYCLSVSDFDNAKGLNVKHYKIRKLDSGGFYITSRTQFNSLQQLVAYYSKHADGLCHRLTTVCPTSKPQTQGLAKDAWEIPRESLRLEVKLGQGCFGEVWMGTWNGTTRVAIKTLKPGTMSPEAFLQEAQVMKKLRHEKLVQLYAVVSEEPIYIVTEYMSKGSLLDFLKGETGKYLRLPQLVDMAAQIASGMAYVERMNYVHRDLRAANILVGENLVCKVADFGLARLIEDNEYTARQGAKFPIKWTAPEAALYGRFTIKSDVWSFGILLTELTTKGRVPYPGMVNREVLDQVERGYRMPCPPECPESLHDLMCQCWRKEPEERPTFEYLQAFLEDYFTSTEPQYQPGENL
T1 sequence (P63085 whole entry): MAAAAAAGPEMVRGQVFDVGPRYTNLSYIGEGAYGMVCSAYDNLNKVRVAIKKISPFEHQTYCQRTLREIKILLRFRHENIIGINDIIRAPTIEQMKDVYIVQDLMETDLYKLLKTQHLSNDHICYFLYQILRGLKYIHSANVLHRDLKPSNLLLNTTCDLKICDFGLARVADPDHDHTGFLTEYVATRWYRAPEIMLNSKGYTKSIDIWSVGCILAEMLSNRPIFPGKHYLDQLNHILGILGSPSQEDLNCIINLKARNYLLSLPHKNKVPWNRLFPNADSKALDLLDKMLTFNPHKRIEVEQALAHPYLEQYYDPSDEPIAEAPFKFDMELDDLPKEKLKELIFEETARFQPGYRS

**Q.** For Nc1ccc(OP(=O)(O)OP(=O)(O)OP(=O)(O)OC[C@H]2O[C@@H](n3cnc4c(N)ncnc43)[C@H](O)[C@@H]2O)cc1 [adenosine-5'-(γ-4-aminophenyl)triphosphate], which “Ki /Km” value (p42^mapk; Km for ATP) is on record?
**A.** The value was 10.02.

**Q.** And the Ki (p42^mapk; read-out: Ki ± SDM)?
**A.** Its Ki is 75.2 ± 8.2 µM.

**Q.** What about the “competition with ATP” value ([1]; 20 μM ATP) of the same compound?
**A.** Its value is “competes with ATP”.

**Q.** And the “Ki /Km quotient” value ([1]; 20 μM ATP, range over four enzymes)?
**A.** Its value is 10-20.

**Q.** And the Ki ([1]; 20 μM ATP, range over four enzymes, read-out: apparent Ki values obtained against each enzyme)?
**A.** Its Ki is 75 to 180 µM.

**Q.** And the “effect on the Ki /Km quotient of reduced [Mg^2+]” value [1, 2]?
**A.** The value was “no effect”.

**Q.** And the “effect on the Ki of reduced [Mg^2+]” value [1, 2]?
**A.** The value was “no effect”.

**Q.** And the Ki (Cyclic A kinase)?
**A.** The Ki was 104 ± 11.6 µM.

**Q.** What about the “Ki /Km” value (Cyclic A kinase; cyclic A kinase, 20 μM ATP, Km for ATP) of the same compound?
**A.** The value was 14.60.

**Q.** What about the “Ki /Km” value (p60^c-src; Km for ATP) of the same compound?
**A.** Its value is 19.35.

**Q.** What about the Ki (p60^c-src; read-out: Ki ± SDM) of the same compound?
**A.** Its Ki is 120 ± 13.6 µM.

**Q.** And the Ki (MAPKK)?
**A.** The Ki was 176 ± 22.1 µM.

**Q.** What about the “Ki /Km” value (MAPKK; MAPKK, 20 μM ATP, Km for ATP) of the same compound?
**A.** The value was 15.20.
